Read-outs that look alike come from different tables or passages of the source. Each block holds one molecule with its values, some of them ahead of it.
Assays:
[1] = test system: RNA transcription products from PolI (preribosome), PolII (myc), and PolRMT (ATP6) in PC-3 cells; assay: RNA transcripts in PC-3 cells by RT-PCR; format: cell-based, human; conditions: 5 μM, 1-day treatment
Method: CX-5461, a known specific RNA PolI inhibitor, was used as the positive control ([25]). The growth medium was aspirated and replaced with 200 μl of 100 μM BMS-986094, 5 μM CX-5461, or DMSO control prepared in growth medium. At selected time points (0.5, 1, 4, 8, and 24 h), duplicate wells of the compounds and DMSO control were aspirated, the cells were washed 1× with PBS (pH 7.4), and 100 μl of RNA lysis buffer was added (Promega, Sunnyvale, CA). RNA was purified using the Wizard SV 96 total RNA isolation kit (Promega) and eluted in 100 μl of nuclease-free water. The TaqMan RNA-to-Ct 1-step kit (ABI/Life Technologies) was used for reverse transcription-quantitative PCR (RT-qPCR) amplification and quantification, using the 7900HT Fast real-time PCR system (ABI) under the following conditions: 15 min at 48°C for reverse transcription and 10 min at 95°C for activation, followed by 40 cycles of 15 s at 95°C for denaturation and 1 min at 60°C for annealing and extension. […] Transcripts were quantified relative to the standard curves, and the results expressed as the percentages of the average value of DMSO control wells.

RNA PolII = target: T1, RNA PolII (Homo sapiens, UniProt P24928+P30876); assay: Inhibition of RNA PolII (HeLaScribe nuclear extract transcription); format: biochemical; conditions: nucleotide analogs (Table 6); read-out: Mean IC50 ± SD for RNA PolII
T1 construct: purchased as part of the HeLaScribe nuclear extract in vitro transcription system kit; purchased Promega (Madison, WI); host or cells: HeLa nuclear extract (endogenous enzyme)
Description: (§1) Activated fish sperm DNA was purchased from USB/Affymetrix (Santa Clara, CA) and used as a template for the DNA polymerases alpha, beta, and gamma. The DNA template used in the RNA Pol II assay was a 1,188-bp restriction fragment containing the cytomegalovirus (CMV) immediate early promoter (Promega, Madison, WI). The RNA and DNA oligonucleotides used in the mitochondrial RNA polymerase assay (see Table S1 in the supplemental material) were synthesized and PAGE purified by Thermo Scientific/Dharmacon (Lafayette, CO). RNA primer R12 was 5′-^32P-phosphorylated with [γ-^32P]ATP (3,000 Ci/mmol) and T4 kinase (New England BioLabs, Ipswich, MA).
(§2) Human DNA polymerase alpha, isolated from HeLa cell extracts, was from CHIMERx (Madison, WI). Recombinant human DNA polymerase beta, expressed in E. coli, was a gift from Zucai Suo at The Ohio State University. Recombinant human DNA polymerase gamma (including both the large subunit and the small subunit) was cloned, expressed, and purified from insect cells by Gilead Sciences (Foster City, CA) ([13]). RNA PolII was purchased as part of the HeLaScribe nuclear extract in vitro transcription system kit from Promega (Madison, WI). The recombinant human PolRMT and the transcription factors mitochondrial transcription factor A (mtTFA) and B2 (mtTFB2) were purchased from Enzymax (Lexington, KY). FLAG epitope-tagged RNA PolI and PolIII complexes were isolated from rat NSN1 cells and HeLa cells, respectively ([17], [18]). The inhibition of DNA polymerases alpha, beta, and gamma, PolRMT, and PolII and the rate of single-nucleotide incorporation by PolRMT have been described previously in detail ([12], [13], [19]). Inhibition of RNA PolI and PolIII was studied using published methods ([20], [21]). All concentrations were final unless noted otherwise. For the RNA PolI inhibition assay, a reaction mixture containing 50 mM HEPES (pH 7.9), 20% glycerol, 100 mM KCl, 1 mM dithiothreitol (DTT), 50 μg/ml calf thymus DNA, 4 mM MgCl2, 5 or 80 μM UTP (0.25 μl of [5,6-^3H]UTP, >25 Ci/mmol; PerkinElmer), 1 mM noncompeting NTP, competing NTP (5 μM for GTP, CTP, and UTP and 25 μM for ATP), and various concentrations (0 to 500 μM) of NTP analogs was preincubated at 30°C for 5 min. […] After incubation at 30°C for 20 min to 1 h, the reactions were terminated by pipetting the mixtures onto DEAE-cellulose discs (DE81; Whatman), and the products analyzed as described previously ([20], [21]).

RNA PolI = target: T2, RNA PolI (Rattus norvegicus, UniProt O54889); assay: RNA PolI inhibition assay; format: biochemical; conditions: NTP analogs 0 to 500 μM; read-out: Mean IC50 ± SD for RNA PolI
T2 construct: complexes were isolated from rat NSN1 cells and HeLa cells, respectively; made in house; host or cells: rat NSN1 cells expressing a FLAG-tagged Pol I subunit
Description: as §2

RNA PolIII = target: T3, RNA PolIII (Homo sapiens, UniProt O14802+Q9NW08); assay: RNA PolIII inhibition assay; format: biochemical; conditions: competing NTP 100 μM CTP and GTP, 500 μM ATP; read-out: Mean IC50 ± SD for RNA PolIII
T3 construct: complexes were isolated from rat NSN1 cells and HeLa cells, respectively; made in house; host or cells: HeLa cells expressing a FLAG-tagged Pol III subunit
Description: as §2
The RNA PolIII inhibition assay was conducted in a similar manner, except that the concentrations of the competing NTP were modified to 100 μM for CTP and GTP and 500 μM for ATP to compensate for the low assay signal at lower NTP concentrations.

recombinant human PolRMT = target: T4, recombinant human PolRMT (Homo sapiens, UniProt O00411); assay: Inhibition of PolRMT-catalyzed RNA synthesis; format: biochemical; conditions: read-out: Mean IC50 ± SD for PolRMT
T4 construct: purchased Enzymax (Lexington, KY)
Description: as §1, with “The DNA template used in the RNA Pol II assay was a 1,188-bp restriction fragment containing the cytomegalovirus (CMV) immediate early promoter (Promega, Madison, WI).” left out
as §2, with “otherwise.” for “otherwise. For the RNA PolI inhibition assay, a reaction mixture containing 50 mM HEPES (pH 7.9), 20% glycerol, 100 mM KCl, 1 mM dithiothreitol (DTT), 50 μg/ml calf thymus DNA, 4 mM MgCl2, 5 or 80 μM UTP (0.25 μl of [5,6-^3H]UTP, >25 Ci/mmol; PerkinElmer), 1 mM noncompeting NTP, competing NTP (5 μM for GTP, CTP, and UTP and 25 μM for ATP), and various concentrations (0 to 500 μM) of NTP analogs was preincubated at 30°C for 5 min.”

[2] = Cytotoxicity in quiescent PBMCs, 5 days; conditions: human, quiescent PBMCs
Method: (§4) Human peripheral blood mononuclear cells (PBMCs) were isolated from human buffy coats obtained from healthy volunteers (Stanford Blood Bank, Palo Alto, CA) using standard Ficoll separation and stimulated as described elsewhere ([13]) and were tested at both quiescent and stimulated stages. Quiescent PBMCs were stimulated with 10 units per ml of recombinant human interleukin 2 (hIL-2) and 1 μg per ml phytohemagglutinin P (PHA-P) for 48 h prior to drug treatment.
(§5) All cells were cultured at 37°C in a 5% CO2 incubator with 90% humidity unless noted otherwise. […] All cells were treated with the various compounds for 5 days, except for human erythroid and myeloid progenitors, which were treated for 14 days. After the incubation period, cell viability was measured by the addition of CellTiter Glo viability reagents (Promega, Madison, WI). The luminescence signal was quantified on an Envision luminescence plate reader (PerkinElmer, Waltham, MA) after incubation of the reagents and cells for 10 min at room temperature. […] CC50 values were calculated as the average of the results of three or four independent experiments.
(§6) Human peripheral blood mononuclear cells (PBMCs) were isolated from human buffy coats
(§7) obtained from normal healthy volunteers (Stanford Medical School Blood Center, Palo Alto,
(§8) CA). Total PBMCs were isolated from buffy coats using standard Ficoll separation and sterile
(§9) cellular isolation techniques performed in a bio-safety cabinet (1). Except where noted, the
(§10) procedure was carried out at room temperature. The final PBMCs pellet was resuspended in
(§11) Logan, UT), penicillin 100 units/mL and streptomycin 100 µg/mL (Gibco). For quiescent
(§12) PBMCs cultures, total cells were seeded in 96-well plates at a density of 1 x 10^6 cells per well, followed by immediate drug treatment. Stimulated PBMCs cultures were set up by seeding the freshly isolated PBMCs in T-175cm2 tissue culture flasks in 100 mL of RPMI containing the same components as the ones used for the quiescent PBMCs but with the addition of 10 units per mL of recombinant human interleukin-2 (hIL-2, Roche, Indianapolis, IN), and 1 µg per mL phytohemagglutinin-P (PHA-P, Sigma-Aldrich, St. Louis, MO) at density of 2  10^6 cells per mL for 48 hours at 37C in a 5% CO2 incubator with 90% humidity, prior to drug treatment.

[3] = Cytotoxicity in primary rat neonatal cardiomyocytes, 5 days; format: cell-based; conditions: Sprague Dawley, primary rat neonatal cardiomyocytes, 5-day treatment, read-out: CC50 (mean ± standard deviation) in primary rat cardiomyocytes
[4] = Cytotoxicity in primary human hepatocytes, 5 days; conditions: human, primary human hepatocytes
Method: Primary human hepatocytes were from Bioreclamation IVT (Westbury, NY) or Life Technologies (Carlsbad, CA).
as §5

[5] = test system: nuclear DNA-encoded succinate dehydrogenase (SDH-A; complex II) protein level; assay: Nuclear protein synthesis (SDH-A, MitoBiogenesis in-cell ELISA) in PC-3 cells; format: cell-based, human; conditions: human, read-out: Mean CC50 ± SD causing General cellular toxicity: Protein synthesis
Method: (§3) PC-3 cells were treated with the compounds for 5 days and analyzed with the MitoTox MitoBiogenesis in-cell enzyme-linked immunosorbent assay (ELISA) kit (MitoSciences/Abcam, Eugene, Oregon) as described previously ([13]). The assay uses quantitative immunocytochemistry to measure the protein levels of nuclear DNA-encoded succinate dehydrogenase (SDH-A; complex II [succinate dehydrogenase]) and mitochondrial DNA-encoded cytochrome c oxidase (COX-1; complex IV [cytochrome c oxidase]) in cultured cells.

[6] = Cytotoxicity in HepG2 (galactose) cells, 5-day treatment; conditions: human, HepG2 cells (galactose)
[7] = test system: mitochondrial spare respiratory capacity in PC-3 cells; assay: Oxygen consumption rate / spare respiratory capacity in PC-3 cells; conditions: PC-3 cells, 3-day treatments
[8] = test system: mitochondrial spare respiratory capacity; assay: as above; conditions: human, PC-3 cells, pH 7.4
[9] = Cytotoxicity in MT-4 T-cells, 5-day treatment; conditions: human, MT-4 cells
[10] = Cytotoxicity / ATP level in PC-3 cells, 5-day treatment; conditions: human, PC-3 cells
[11] = test system: mitochondrial DNA-encoded cytochrome c oxidase (COX-1); assay: Mitochondrial protein synthesis assay (COX-1, MitoBiogenesis in-cell ELISA) in PC-3 cells; format: cell-based, human; conditions: PC-3 cells, 5-day treatments
Method: as §3

[12] = test system: mitochondrial DNA-encoded cytochrome c oxidase (COX-1; complex IV) protein level; assay: as above; format: cell-based, human; conditions: human; PC-3 cells, COX-1, 5 days; read-out: Mean CC50 ± SD causing Mitochondrial toxicity: Protein synthesis
Method: as §3

[13] = Bone marrow erythroid progenitor colony assay, 14 days; format: cell-based, human; conditions: human, human bone marrow erythroid progenitors, read-out: Mean CC50 ± SD in Bone marrow cells Erythroid
[14] = Cytotoxicity in stimulated PBMCs, 5 days; conditions: human, stimulated PBMCs
Method: as §4, §5, §6, §7, §8, §9, §10, §11, §12

[15] = Cytotoxicity in Huh7 cells, 5-day treatment (CellTiter Glo); conditions: human, Huh-7 cells
Method: as §5
Cell Culture and Cytotoxicity Studies
(§13) The Huh-7 cells were maintained in growth medium containing Dulbecco's Modified Eagle
(§14) Medium (DMEM, Cellgro) supplemented with 1% Nonessential Amino Acids (NEAA, Cellgro,
(§15) Manassas, VA), 10% fetal bovine serum (FBS, HyClone, Logan, UT) and 1% Penicillin-
(§16) streptomycin-glutamate (PSG, Invitrogen, Carlsbad, CA). The cells were passaged twice weekly
(§17) and maintained at 90% confluence densities.
(§18) The HepG2 cells were maintained in Eagle’s Minimum Essential Medium (EMEM) from ATCC
(§19) (Manassas, VA) supplemented with 10% FBS, 100 units/mL penicillin and 100 µg/mL
(§20) streptomycin (P/S) (Gibco). The cells were passaged twice weekly and maintained at 90%
(§21) The PC-3 cells were maintained in Kaighn’s F12 medium (Gibco, Carlsbad, CA) supplemented
(§22) with 10% FBS (HyClone, Logan, UT), 100 units/mL penicillin and 100 µg/mL streptomycin
(§23) (P/S) (Gibco). The cells were passaged twice weekly and maintained at 90% confluence. Cells
(§24) between passages 4 and 15 were used in the assays.
(§25) The fibroblast cell line MRC-5 cell line derived from normal lung tissue, was purchased from
(§26) ATCC (Manassas, VA) and cultured in Minimum Essential Medium (MEM) (Cellgro, Manassas,
(§27) VA) supplemented with 10% FBS (HyClone, Logan, UT) and 1% PSG (Invitrogen). The cells
(§28) were passaged twice weekly and maintained at 90% confluence densities.

[16] = Bone marrow myeloid progenitor colony assay, 14 days; format: cell-based, human; conditions: human, human bone marrow myeloid progenitors, read-out: Mean CC50 ± SD in Bone marrow cells Myeloid
[17] = Cytotoxicity in MRC5 fibroblasts, 5-day treatment; conditions: human, MRC5 fibroblasts
Method: as §5
Cell Culture and Cytotoxicity Studies
as §13, §14, §15, §16, §17, §18, §19, §20, §21, §22, §23, §24, §25, §26, §27, §28

T4 sequence (O00411 42-1230): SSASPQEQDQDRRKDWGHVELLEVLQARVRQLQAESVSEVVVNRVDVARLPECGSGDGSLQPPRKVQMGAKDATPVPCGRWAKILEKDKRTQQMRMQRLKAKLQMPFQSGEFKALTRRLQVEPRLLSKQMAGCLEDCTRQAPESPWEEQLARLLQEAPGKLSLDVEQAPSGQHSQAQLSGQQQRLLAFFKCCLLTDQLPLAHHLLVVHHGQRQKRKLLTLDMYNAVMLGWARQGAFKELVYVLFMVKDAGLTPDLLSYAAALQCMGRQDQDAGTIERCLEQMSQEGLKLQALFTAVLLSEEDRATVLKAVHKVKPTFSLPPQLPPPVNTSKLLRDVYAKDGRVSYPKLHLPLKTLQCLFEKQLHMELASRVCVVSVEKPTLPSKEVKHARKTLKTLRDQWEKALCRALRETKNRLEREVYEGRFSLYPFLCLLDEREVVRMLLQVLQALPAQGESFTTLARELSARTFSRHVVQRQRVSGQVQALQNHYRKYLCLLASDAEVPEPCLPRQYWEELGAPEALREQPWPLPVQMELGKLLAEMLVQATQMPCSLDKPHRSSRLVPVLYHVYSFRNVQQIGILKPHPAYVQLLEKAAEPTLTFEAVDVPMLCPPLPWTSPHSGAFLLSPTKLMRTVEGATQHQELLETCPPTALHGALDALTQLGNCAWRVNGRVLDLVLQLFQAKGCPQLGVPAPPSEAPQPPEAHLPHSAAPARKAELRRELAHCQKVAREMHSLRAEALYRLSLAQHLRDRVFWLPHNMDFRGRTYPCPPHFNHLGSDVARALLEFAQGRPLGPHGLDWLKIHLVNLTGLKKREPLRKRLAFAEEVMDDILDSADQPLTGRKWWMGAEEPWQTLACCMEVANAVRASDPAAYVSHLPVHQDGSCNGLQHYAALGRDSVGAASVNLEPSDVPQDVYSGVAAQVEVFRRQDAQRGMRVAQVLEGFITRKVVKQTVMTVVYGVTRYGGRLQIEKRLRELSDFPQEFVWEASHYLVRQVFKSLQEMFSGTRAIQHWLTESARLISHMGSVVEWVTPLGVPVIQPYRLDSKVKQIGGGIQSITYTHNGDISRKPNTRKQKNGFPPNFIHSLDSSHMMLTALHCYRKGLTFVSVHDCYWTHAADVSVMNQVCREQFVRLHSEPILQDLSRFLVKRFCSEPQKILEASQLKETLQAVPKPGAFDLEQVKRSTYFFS
T2 sequence (O54889 whole entry): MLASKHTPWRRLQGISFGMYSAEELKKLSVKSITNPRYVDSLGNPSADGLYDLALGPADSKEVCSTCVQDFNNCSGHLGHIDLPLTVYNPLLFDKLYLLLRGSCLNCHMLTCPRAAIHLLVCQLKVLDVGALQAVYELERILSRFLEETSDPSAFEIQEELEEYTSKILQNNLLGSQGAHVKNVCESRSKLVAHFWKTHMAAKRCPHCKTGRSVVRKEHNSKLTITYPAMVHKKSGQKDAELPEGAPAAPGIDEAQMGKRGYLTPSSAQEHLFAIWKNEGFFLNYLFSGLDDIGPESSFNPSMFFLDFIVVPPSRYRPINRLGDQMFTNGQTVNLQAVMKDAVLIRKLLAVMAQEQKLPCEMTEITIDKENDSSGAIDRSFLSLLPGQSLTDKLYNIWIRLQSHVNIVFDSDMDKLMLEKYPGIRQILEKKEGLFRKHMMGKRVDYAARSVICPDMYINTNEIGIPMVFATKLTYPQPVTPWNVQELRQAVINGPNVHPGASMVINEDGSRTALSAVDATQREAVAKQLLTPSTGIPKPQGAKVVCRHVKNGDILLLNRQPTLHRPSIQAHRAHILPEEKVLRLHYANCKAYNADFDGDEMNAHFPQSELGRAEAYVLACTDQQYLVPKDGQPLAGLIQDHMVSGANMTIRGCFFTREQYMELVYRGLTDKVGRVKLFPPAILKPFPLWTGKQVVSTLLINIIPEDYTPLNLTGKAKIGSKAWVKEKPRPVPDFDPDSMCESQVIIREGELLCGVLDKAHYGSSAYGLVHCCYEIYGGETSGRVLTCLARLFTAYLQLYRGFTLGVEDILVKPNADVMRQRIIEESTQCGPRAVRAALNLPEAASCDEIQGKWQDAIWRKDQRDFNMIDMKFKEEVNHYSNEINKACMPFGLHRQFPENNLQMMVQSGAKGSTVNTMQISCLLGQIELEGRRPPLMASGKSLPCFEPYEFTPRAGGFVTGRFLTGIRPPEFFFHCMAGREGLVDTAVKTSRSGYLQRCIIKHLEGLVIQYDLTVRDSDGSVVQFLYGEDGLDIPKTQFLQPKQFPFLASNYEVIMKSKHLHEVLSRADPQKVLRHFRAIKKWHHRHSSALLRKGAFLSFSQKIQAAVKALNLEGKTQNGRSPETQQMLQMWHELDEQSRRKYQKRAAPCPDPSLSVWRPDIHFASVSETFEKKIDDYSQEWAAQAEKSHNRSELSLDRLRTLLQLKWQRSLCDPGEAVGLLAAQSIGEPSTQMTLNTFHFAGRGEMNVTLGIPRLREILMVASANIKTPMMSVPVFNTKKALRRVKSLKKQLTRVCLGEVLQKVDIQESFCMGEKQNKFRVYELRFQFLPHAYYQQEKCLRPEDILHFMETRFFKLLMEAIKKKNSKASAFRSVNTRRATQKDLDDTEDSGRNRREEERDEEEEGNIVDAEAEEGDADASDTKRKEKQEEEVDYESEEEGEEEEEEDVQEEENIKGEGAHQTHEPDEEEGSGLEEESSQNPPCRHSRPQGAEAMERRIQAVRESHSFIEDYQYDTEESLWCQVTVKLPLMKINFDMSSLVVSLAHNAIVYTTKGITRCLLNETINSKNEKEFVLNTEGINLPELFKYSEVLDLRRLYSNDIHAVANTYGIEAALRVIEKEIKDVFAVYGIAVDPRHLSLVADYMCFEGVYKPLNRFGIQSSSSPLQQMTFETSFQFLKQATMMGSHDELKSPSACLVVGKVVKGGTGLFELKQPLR

SMILES: Cc1cnc(CNC(=O)c2c(=O)c3ccc(N4CCCN(C)CC4)nc3n3c2sc2ccccc23)cn1 [CX-5461]
relative levels of RNA transcripts (pre-rRNA, myc, mitochondrial ATP6) [1]: selectively decreased pre-rRNA but had no effect on the levels of myc and mitochondrial ATP6 RNAs

IC50 (RNA PolII): > 500000 nM
IC50 (RNA PolI): 690000 ± 230000 nM
IC50 (RNA PolIII): > 500000 nM
IC50 (recombinant human PolRMT; nucleotide analogs (Table 6)): 240000 ± 30000 nM
SMILES: C[C@@]1(O)[C@H](O)[C@@H](COP(=O)(O)OP(=O)(O)OP(=O)(O)O)O[C@H]1n1ccc(=O)[nH]c1=O [2′CMeUTP]

IC50 (RNA PolII): > 500000 nM
IC50 (RNA PolI): 25000 ± 2000 nM
IC50 (RNA PolIII): 104000 ± 20000 nM
IC50 (recombinant human PolRMT; nucleotide analogs (Table 6)): 4200 ± 1400 nM
IC50 (recombinant human PolRMT; triphosphate form of the compound tested (Table 4)): 4200 ± 1400 nM
SMILES: Nc1nc2c(ncn2[C@@H]2O[C@H](COP(=O)(O)OP(=O)(O)OP(=O)(O)O)C[C@H]2O)c(=O)[nH]1 [3′deoxyGTP]

SMILES: COc1ccc(C[C@H](N)C(=O)N[C@H]2[C@@H](O)[C@H](n3cnc4c(N(C)C)ncnc43)O[C@@H]2CO)cc1 [Puromycin]
CC50 at 5 days [2]: 4500 ± 1900 nM
CC50 at 5 days [3]: 330 ± 50 nM
CC50 at 5 days [4]: 1900 ± 800 nM
CC50 at 5 days [5]: 150 ± 10 nM
CC50 at 5 days [6]: 650 ± 180 nM
selectivity of effect on spare respiratory capacity versus DNA and ATP levels [7]: nonselective inhibition of the spare respiratory capacity, DNA, and ATP levels
CC50 at 3 days [8]: 490 ± 110 nM
CC50 at 5 days [9]: 160 ± 60 nM
CC50 at 5 days [10]: 220 ± 70 nM
selectivity of effect on COX-1 versus SDH-A and ATP levels [11]: nonselective inhibitive effects on the COX-1, SDH-A, and ATP levels
CC50 at 5 days [12]: 120 ± 10 nM
CC50 at 14 days [13]: 360 ± 60 nM
CC50 at 5 days [14]: 1000 ± 200 nM
CC50 at 5 days [15]: 520 ± 190 nM
CC50 at 14 days [16]: 270 ± 40 nM
CC50 at 5 days [17]: 240 ± 50 nM
